Several values for one entry are separate records, joined by “and”; a condition that tells them apart may be missing. Equal entries are not always repeated. Where two headings read alike, the source gives them in different places.
Legend:
[1] = tested on: S. aureus MW2 biofilms; test: Biofilm eradication/biomass removal, crystal violet staining; type: cell-based, Staphylococcus aureus; details: for Activity on preformed biofilm, crystal violet: 500 μg/mL for 24 h, MSSA and MRSA strains
Method: Dis. 209:1469-78 was followed. Briefly, S. aureus MW2 strain grown on blood agar plates was inoculated into TSB with 2% glucose and the culture was grown overnight. The culture was diluted 1:50 in TSB to achieve an […] of the diluted culture was added to 1.8 mL of TSB media aliquoted into each well of a 24 well plate (˜5×10^5 CFU). The plates were kept at 37° C. under static conditions for 18 h, the contents were aspirated, the wells were washed twice with 2.0 mLmL of 1×PBS, and 1 mLmL of media+1 mLmL of the drug was added to each well and incubated at 37° C. for 0, 2, 4 and 24 h. The contents were aspirated out at the stipulated time points and the wells were washed with 2 mL of 1×PBS. The wells were allowed to dry at 37° C. for 15 min and stained with 1 mLmL of 1% CV for 5 min. The wells were washed with 1 mLmL of 1×PBS, air dried and observed for intensity of blue color.
0.1% CV was used for staining biofilms. Post staining and washing steps, 1 mL 30% acetic acid is added to each well, incubated in RT for 5-10 min, contents in the well are mixed thoroughly and OD was read at 570 nm.

[2] = tested on: S. epidermidis biofilms; test: MBIC and checkerboard synergy on preformed biofilm (MTT assay); type: cell-based, Staphylococcus epidermidis; details: for MBIC (drug alone): 6 hr treatment; for MBIC: S. epidermidis ATCC 12228 biofilm
Method: The ability of P128 to inhibit growth of S. aureus in a preformed biofilm was measured by determining minimum biofilm inhibition concentration (MBIC), defined as minimum concentration showing growth inhibition in a MTT based assay. Since P128 kills Staphylococcus cultures rapidly, it was expected to show a rapid effect on biofilms as well. Paul, et al. (2011) “A novel bacteriophage Tail-Associated Muralytic Enzyme (TAME) from Phage K and its development into a potent antistaphylococcal protein” BMC Microbiol. 11:226.
Culture conditions were optimized for reproducibly obtaining a robust biofilm of S. epidermidis in 96 well microtitre plates. For this purpose, biofilms were generated in microtiter plates and the surface-adhered cultures remaining after washing off the planktonic cells were analyzed at the end of 72 h by MTT dye assay. Briefly, an overnight-grown culture of the S. epidermidis strain was diluted 1:40 in LB broth. 200 μL of diluted culture was aliquoted into microtiter plate wells. Microplates were placed in a shaker-incubator set to 37° C., and 100 rpm for 24 h followed by 48 h incubation under static conditions at 37° C. The contents of wells were aspirated and discarded. Wells were washed twice with 1×PBS and the presence of biofilm in the wells at the end of 72-hour period was determined by metabolic dye-reduction assay method using MTT (3-(4,5-dimethylthiazol-2-yl)-2,5-diphenyltetrazolium bromide; Himedia). In this assay, live cells reduce the dye leading to color formation which can be read at 570 nm and the intensity of color can be correlated to number of live cells.
[…] LB supplemented with 50 μg/mL Ca^++ was used for daptomycin treatment wells. The contents of the well was aspirated out and discarded. The biofilm adhered to the wells was quantified by MTT assay as described above. In each experiment, in addition to the combination MBIC, the MBIC of each drug was also determined individually. The fractional MBIC concentrations were determined by MTT dye method as described above. The FICI and synergy was calculated.

[3] = tested on: S. aureus; test: MIC and checkerboard synergy (broth microdilution) on planktonic cells; type: cell-based, Staphylococcus aureus; details: for MIC: Staphylococcus aureus
Method: MIC was determined using a modified Clinical and Laboratory Standards Institute (CLSI) broth microdilution procedure described earlier in Vipra, et al. (2012) “Antistaphylococcal activity of bacteriophage derived chimeric protein P128” BMC Microbiol. 12:41-50; and Clinical and Laboratory Standards Institute (2012) “Methods for Dilution Antimicrobial Susceptibility Tests for Bacteria That Grow Aerobically; Approved Standard” CLSI document M07-A9.9 ed. Wayne, Pa. USA. In order to determine effects of combinations of P128 with antibiotics, combinations of various dilutions of P128 and a second drug were tested for growth inhibition using a microdilution checkerboard technique. See Lu, et al. (2013) “In vitro activity of sodium new houttuyfonate alone and in combination with oxacillin or netilmicin against methicillin-resistant Staphylococcus aureus” PLoS One 8:e68053. Briefly, S. aureus culture at a final cell number of 5×10^5 CFU/mL was added to wells of 96-well microtiter plates (precoated with 0.5% BSA), containing two-fold dilutions of P128 and the second drug in cation adjusted Mueller Hinton Broth (CAMHB). The plates were incubated at 37° C. for 24 h and the individual MICs and the combination MICs were read. The fractional inhibitory concentration index (FICI) was determined using the following equation: FICI=(MIC of drug A in the combination/MIC of drug A alone)+(MIC of drug B in the combination/MIC of drug B alone). The combination was considered to be synergistic when the FICI was ≤0.5; additive when FICI was 0.5-1.0; indifferent when FICI was 1-4 and antagonistic when FICI≥4. The experiments were performed in triplicate and repeated twice.
In order to find out whether P128 can act in a synergistic manner with commonly used antibiotics, MIC based growth inhibition assays were performed. MIC based synergy was studied by checkerboard method by determining the FIC index using the method of Lu, et at (2013) “In vitro activity of sodium new houttuyfonate alone and in combination with oxacillin or netilmicin against methicillin-resistant Staphylococcus aureus” PLoS One 8:e68053. […] Similarly.
Bacterial cultures at a final cell number of 5×10^5 CFU/mL was added to wells of 96-well microtiter plates (precoated with 0.5% BSA), containing two-fold dilutions of P128 and the second drug in cation adjusted Mueller Hinton Broth (CAMHB). The plates were incubated at 37° C. for 24 h and the individual MICs and the combination MICs were read. The fractional inhibitory concentration index (FICI) was determined using the following equation: FICI=(MIC of drug A in the combination/MIC of drug A alone)+(MIC of drug B in the combination/MIC of drug B alone). The combination was considered to be synergistic when the FICI was ≤0.5; additive when FICI was 0.5-1.0; indifferent when FICI was 1-4 and antagonistic when FICI≥4.

[4] = S. epidermidis B9470 72 h preformed biofilm
[5] = S. epidermidis B9471 72 h preformed biofilm
[6] = S. epidermidis B9472 72 h preformed biofilm

Molecule: CC(=O)NC[C@H]1CN(c2ccc(N3CCOCC3)c(F)c2)C(=O)O1 [Linezolid, linezolid]
- Activity on preformed biofilm, crystal violet [1]: insignificant activity
- MBIC (drug alone) [2, 4]: 7.8 µg/mL
- MBIC (drug alone) [2, 5]: 250 µg/mL
- MBIC (drug alone) [2, 6]: 250 µg/mL
- MIC ([3]; 24 h, LRSA strain B9456, read-out: MIC (drug alone)): > 32 µg/mL
- MIC ([3]; 24 h, LRSA strain B9457, read-out: MIC (drug alone)): 8 µg/mL

Molecule: CCCCCCCCCC(=O)N[C@@H](Cc1c[nH]c2ccccc12)C(=O)N[C@H](CC(N)=O)C(=O)N[C@@H](CC(=O)O)C(=O)N[C@@H]1C(=O)NCC(=O)N[C@@H](CCCN)C(=O)N[C@@H](CC(=O)O)C(=O)N[C@H](C)C(=O)N[C@@H](CC(=O)O)C(=O)NCC(=O)N[C@H](CO)C(=O)N[C@@H]([C@H](C)CC(=O)O)C(=O)N[C@@H](CC(=O)c2ccccc2N)C(=O)O[C@@H]1C [Daptomycin, daptomycin]
- Activity on preformed biofilm, crystal violet [1]: insignificant activity
- MBIC (drug alone) [2, 4]: 15.6 µg/mL
- MBIC (drug alone) [2, 5]: 15.6 µg/mL
- MBIC (drug alone) [2, 6]: 7.8 µg/mL

Molecule: CN[C@H](CC(C)C)C(=O)N[C@H]1C(=O)N[C@@H](CC(N)=O)C(=O)N[C@H]2C(=O)N[C@H]3C(=O)N[C@H](C(=O)N[C@H](C(=O)O)c4cc(O)cc(O)c4-c4cc3ccc4O)[C@H](O)c3ccc(c(Cl)c3)Oc3cc2cc(c3O[C@@H]2O[C@H](CO)[C@@H](O)[C@H](O)[C@H]2O[C@H]2C[C@](C)(N)[C@H](O)[C@H](C)O2)Oc2ccc(cc2Cl)[C@H]1O [Vancomycin, vancomycin]
- Activity on preformed biofilm, crystal violet [1]: insignificant activity
- MBIC (drug alone) [2, 4]: 7.8 µg/mL
- MBIC (drug alone) [2, 5]: 250 µg/mL
- MBIC (drug alone) [2, 6]: 250 µg/mL
- MIC ([3]; 24 h, read-out: MIC (drug alone), S. aureus B9241 (gentamycin and ciprofloxacin resistant)): 1 µg/mL
- MIC ([3]; ATCC29213, read-out: MIC over the strains, ATCC29213, BK1 and B9241): 1 µg/mL
- MIC ([3]; ATCC 29213 / MSSA, 24 h, read-out: MIC (drug alone), S. aureus ATCC 29213 (MSSA)): 1 µg/mL
- MIC ([3]; MRSA, 24 h, read-out: MIC (drug alone), S. aureus BK1 (MRSA, ciprofloxacin resistant)): 1 µg/mL
- MIC ([3]; VRSA, 24 h, read-out: MIC (drug alone), VRSA strain VRS 1): 32 µg/mL
- MIC ([3]; VRSA, 24 h, read-out: MIC (drug alone), VRSA strain VRS 2): 32 µg/mL
- MIC ([3]; VRSA, 24 h, read-out: MIC (drug alone), VRSA strain VRS 3a): 32 µg/mL
- MIC ([3]; VRSA, 24 h, read-out: MIC (drug alone), VRSA strain VRS 3b): 32 µg/mL
- MIC ([3]; VRSA, 24 h, read-out: MIC (drug alone), VRSA strain VRS 4): 32 µg/mL
- MIC ([3]; VRSA, 24 h, read-out: MIC (drug alone), VRSA strain VRS 10): 16 µg/mL

B1: P128: anti-staphylococcal chimeric protein: phage tail associated muralytic enzyme (TAME) cell wall-degrading region plus staphylococcus-specific binding region; SEQ ID NO: 1 (protein)
chain: MSLDSLKKYNGKLPKHDPSFVQPGNRHYKYQCTWYAYNRRGQLGIPVPLWGDAADWIGGAKGAGYGVGRTPKQGACVIWQRGVQGGSPQYGHVAFVEKVLDGGKKIFISEHNYATPNGYGTRTIDMSSAIGKNAQFIYDKKLETPNTGWKTNKYGTLYKSESASFTPNTDIITRTTGPFRSMPQSGVLKAGQTIHYDEVMKQDGHVWVGYTGNSGQRIYLPVRTWNKSTNTLGVLWGTIK
modifications: P128 chimera
- Time of treatment to eliminate the biofilms ([1]; P128 at 1×MIC (8 μg/mL)): ≤ 2 h
- OD570 of crystal violet vs cell control ([1]; even after 24 h): significant drop in OD
- MBIC ([2]; 4 h): 7.8 µg/mL
- MBIC ([2]; 6 h): 7.8 µg/mL
- MBIC ([2]; 8 h): 7.8 µg/mL
- MBIC ([2]; 24 h): >1000 µg/mL
- MBIC (drug alone) [2, 4]: 32 µg/mL and 16 µg/mL
- MBIC (drug alone) [2, 5]: 32 µg/mL
- MBIC (drug alone) [2, 6]: 32 µg/mL
- MIC over the strains ([3]; ATCC29213, BK1 and B9241): 4 to 8 µg/mL
- MIC (drug alone) ([3]; LRSA strain B9456): 2 µg/mL
- MIC (drug alone) ([3]; LRSA strain B9457): 1 µg/mL
- MIC (drug alone) ([3]; MRSA strain BK22): 0.45 µg/mL
- MIC (drug alone) ([3]; S. aureus ATCC 29213 (MSSA)): 4 µg/mL
- MIC (drug alone) ([3]; S. aureus B9241 (gentamycin and ciprofloxacin resistant)): 8 µg/mL
- MIC (drug alone) ([3]; S. aureus BK1 (MRSA, ciprofloxacin resistant)): 4 µg/mL
- MIC (drug alone) ([3]; S. aureus BK18): 2 µg/mL and 4 µg/mL
- MIC (drug alone) ([3]; VRSA strain VRS 1): 1.9 µg/mL
- MIC (drug alone) ([3]; VRSA strain VRS 2): 1.9 µg/mL
- MIC (drug alone) ([3]; VRSA strain VRS 3a): 1.9 µg/mL
- MIC (drug alone) ([3]; VRSA strain VRS 3b): 0.97 µg/mL
- MIC (drug alone) ([3]; VRSA strain VRS 4): 1.9 µg/mL
- MIC (drug alone) ([3]; VRSA strain VRS 10): 3.9 µg/mL

Reference: patent publication US20190282673A1, “STAPHTAME ACTIVITY ON BIOFILMS” (priority 2016, published 2019)
